Legend:
[1] = tested on: HCT116 colon cancer cells; settings: another study (ref. 27); cited from earlier work
[2] = tested on: survivin, and p21^WAF1; test: Immunoblot of survivin and p21WAF1 in C3-Luc cells; assay type: cell-based, human; settings: 24 hrs
Experimental: FIG. 2. Siomycin A inhibits endogenous FoxM1 transcriptional activity. (A) C3-Luc cells without doxycycline induction, were treated with increasing dose of Siomycin A and luciferase activity was determined as described in Example 1. (B) C3-Luc cells treated either with DMSO (control) or Siomycin A were harvested 24 hrs later and the RNA was subjected to real-time RT-PCR for quantitation of mRNA levels of FoxM1 target genes Cdc25B, Survivin, and CENPB. (C) C3-Luc cells treated as indicated were harvested 24 hrs later and used for immunoblot analysis to determine the levels of survivin, and p21^WAF1. β-actin protein levels were used as loading control.
(§1) Immunoblotting was performed as described (18-20) with antibodies specific for p21 (556431; BD Pharmingen), survivin (sc-10811; Santa Cruz), cleaved caspase-3 (9664; Cell Signaling), and β-actin (A5441; Sigma) antibodies. Immunoblot for FoxM1 was done using the previously generated rabbit antisera (2), and phospho-FoxM1 was detected using the MPM2 monoclonal antibody (Upstate Biotechnology) which recognizes the phosphorylated protein sequence phosphoserine/phosphothreonine-proline.

[3] = tested on: Leukemia cell lines CEM, HL60 and U937; test: FoxM1 and cleaved caspase-3 immunoblot in leukemia cell lines; assay type: cell-based, human; settings: 5 μM, 48 hrs
Experimental: FIG. 10. […] Leukemia cell lines CEM, HL60 and U937 were treated with 5 μM Siomycin A and thiostrepton, respectively, for 48 hrs and the cell lysates were analyzed for the levels of FoxM1 and cleaved caspase-3 by immunoblotting.
as §1
Next we treated leukemia cell lines with mutant p53 CEM, HL60 and U937 with 5 μM of these compounds for 48 hrs and the cell lysates were analyzed for the levels of FoxM1 and cleaved caspase-3 by immunoblotting.

[4] = tested on: C3-Luc cells; test: Soft agar assay (anchorage-independent growth); assay type: cell-based, human; settings: 10 μM, 1 μg/mL doxycycline, 4 weeks
Experimental: The assay was done as described previously (21, 22). Briefly C3-Luc cells were plated subconfluently in six-well plates in 0.7% agarose on a 1.4% agarose bed in the presence or absence of 10 μM of Siomycin A and 1 μg/mL of doxycycline. Three times a week, the tissue-culture medium containing these agents was replaced. After 4 weeks, cell colonies that were larger than 1 mm in size were scored.

[5] = molecular target: T1, FoxM1 (Homo sapiens, UniProt Q08050); test: FoxM1 immunoprecipitation and MPM2 immunoblot for phospho-FoxM1 in C3-Luc cells; assay type: cell-based; settings: 100 μM, 8 hrs
T1 construct: endogenous in cells; host or cells: C3-Luc (U2OS)
T1 sequence (Q08050 1-763): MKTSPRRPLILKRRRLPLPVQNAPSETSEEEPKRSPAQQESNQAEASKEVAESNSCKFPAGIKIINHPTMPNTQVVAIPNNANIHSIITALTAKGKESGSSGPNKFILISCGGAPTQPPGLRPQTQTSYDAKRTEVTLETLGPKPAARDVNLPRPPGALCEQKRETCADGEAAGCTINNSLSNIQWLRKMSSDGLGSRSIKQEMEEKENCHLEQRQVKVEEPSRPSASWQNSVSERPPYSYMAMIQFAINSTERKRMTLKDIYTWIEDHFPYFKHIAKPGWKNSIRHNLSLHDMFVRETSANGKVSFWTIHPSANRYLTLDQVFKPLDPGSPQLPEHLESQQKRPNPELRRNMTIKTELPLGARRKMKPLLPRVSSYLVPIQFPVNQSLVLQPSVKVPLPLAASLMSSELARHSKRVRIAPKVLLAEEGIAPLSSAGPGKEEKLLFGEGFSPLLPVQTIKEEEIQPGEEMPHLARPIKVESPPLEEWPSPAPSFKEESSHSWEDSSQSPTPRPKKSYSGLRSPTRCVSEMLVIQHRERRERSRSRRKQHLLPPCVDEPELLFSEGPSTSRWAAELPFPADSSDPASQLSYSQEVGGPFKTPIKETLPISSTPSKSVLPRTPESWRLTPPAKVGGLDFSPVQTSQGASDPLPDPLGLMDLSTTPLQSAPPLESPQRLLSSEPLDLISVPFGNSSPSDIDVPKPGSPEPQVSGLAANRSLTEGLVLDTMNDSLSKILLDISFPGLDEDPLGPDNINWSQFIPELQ
Experimental: as §1
For the immunoprecipitation experiment, FoxM1 antisera (2) was used along with protein A-sepharose to pull down FoxM1 protein, which was resolved on an SDS-PAGE gel and transferred to PVDF membrane. The total and phospho-FoxM1 levels were determined by using the antibodies described above.
Based on this observation, we hypothesized that Siomycin A may inhibit FoxM1 transcriptional activity by blocking this phosphorylation event. In order to test this hypothesis, we treated C3-Luc cells with DMSO (control) or 100 μM of Siomycin A for 8 hrs and immunoprecipitated FoxM1 from the lysates. We then analyzed these samples for phospho-FoxM1 levels by immunoblotting with MPM2, a monoclonal antibody that recognizes phosphorylated Cdk1 and Cdk2 sites.

[6] = tested on: 293 and Hela cells; test: Sensitization to TNF-alpha-induced apoptosis (cleaved caspase-3 immunoblot); assay type: cell-based, human; settings: 1 μM Siomycin A and 10 ng/ml TNF-alpha, 24 hours
Experimental: FIG. 14. […] 293 (A) and Hela (B) cells were pretreated with the indicated concentrations of Sulfazalazine (control) for overnight. The following day the cells were treated with 1 μM Siomycin A and 10 ng/ml TNF-alpha as indicated. Twenty-four hours later the cells were harvested and the total cell lysates were used to determine the level of cleaved caspase-3. β-actin was used as the loading control.

[7] = tested on: human breast cancer MDA-MB-231 cell line; settings: earlier report (ref. 26); cited from earlier work

## C=C(NC(=O)C(=C)NC(=O)c1csc(C2=N[C@@H]3c4csc(n4)[C@H]4NC(=O)c5csc(n5)[C@H]([C@](C)(O)[C@@H](C)O)NC(=O)[C@H]5CSC(=N5)/C(=C/C)NC(=O)[C@H]([C@@H](C)O)NC(=O)c5csc(n5)[C@]3(CC2)NC(=O)[C@H](C)NC(=O)C(=C)NC(=O)C(=C)NC(=O)[C@H](C(C)C)N[C@@H]2C=Cc3c([C@H](C)O)cc(nc3[C@H]2O)C(=O)O[C@@H]4C)n1)C(N)=O [Siomycin A]
[1]
  cell death mechanism in HCT116 cells: induced Endoplasmic reticulum stress, and lysosomal membrane permeabilization followed by cell death
[2]
  p21^WAF1 protein levels: increase in its protein levels
  protein levels of survivin: dramatically reduced
[3]
  FoxM1 expression: inhibit FoxM1 expression
  apoptosis (cleaved caspase-3): induce apoptosis
[4]
  anchorage-independent growth (number of colonies on soft agar): dramatically reduced the anchorage-independent growth to less than basal untreated value
[5]
  phospho-FoxM1 levels: decrease in phospho-FoxM1
  total FoxM1 levels: only marginally reduced
[6]
  sensitization to TNF-alpha-induced apoptosis: sensitize human cancer cells to TNF-alpha-induced apoptosis
[7]
  pro-apoptotic activity in screen: identified in a screen for pro-apoptotic compounds
